Key:
[1] = tested on: extensor tonic convulsions; assay: Electroshock induced convulsion inhibition assay (E.S.); type: in vivo, mice (Cox standard strain albino male); conditions: Mus musculus, 1 h; oral dose (gavage); mice; 60 min after administration; 0.1 second, 50 milliampere electroshock through corneal electrodes; inhibition of extensor tonic convulsions in half of the animals
Text: The compounds of Formula I are anticonvulsant agents with a high therapeutic ratio and long half-life and are therefore useful in the treatment and prevention of convulsions in mammals. In particular, the compounds are effective against tonic extensor seizures elicited by maximal electroshock and should therefore be useful for treating generalized tonic-clonic ("grand mal"), cortical focal, complex partial (temporal lobe epilepsy), simple partial (focal motor), and post-traumaticseizures in humans. […] In the electroshock induced convulsion inhibition assay (E.S.), the compound to be tested was dissolved in water (5% --sufficient hydrochloric acid was added for those compounds which were not isolated as a salt in order to effect dissolution) and administered by gavage to each of ten Cox standard strain albino male mice (18-24 g) at the dose level being investigated. Sixty minutes after compound administration, the mice were subjected to a 0.1 second, 50 milliampere electroshock through corneal electrodes. The animals were examined and evaluated immediately after the electroshock for the occurrence of clonic, flexor tonic, or extensor tonic convulsions, or death and the ED50 was determined for each compound as the dose which inhibited the occurrence of extensor tonic convulsions in one half of the animals immediately after the electroshock. For comparison, 18 milliamperes was usually sufficient to produce extensor tonic convulsions in about half of the control animals; at 50 milliamperes, almost all control animals (receiving vehicle only) died.

seizures = conditions: man, cited from earlier work

SMILES: C[C@H](NC(=O)c1ccc(N)cc1)c1cccc2ccccc12.Cl [Example 9, (S)-4-amino-N-[1-(1-naphthalenyl)ethyl]benzamide hydrochloride]
- ED50 [1]: 110 mg/kg

SMILES: Nc1ccc(C(=O)NC2CCc3ccccc32)cc1 (stereo not shown) [Example 8, 4-Amino-N-(2,3-dihydro-1H-inden-1-yl)benzamide]
- ED50 [1]: 31 mg/kg

SMILES: Nc1ccc(C(=O)Nc2cccc3c2CCCC3)cc1 [Example 10, 4-Amino-N-(5,6,7,8-tetrahydro-1-naphthalenyl)benzamide]
- ED50 [1]: 100 mg/kg

SMILES: Cl.Nc1ccc(C(=O)Nc2cccc3ccccc23)cc1 [Example 11, 4-Amino-N-1-naphthalenylbenzamide hydrochloride]
- ED50 [1]: 62 mg/kg

SMILES: Cl.Nc1ccc(C(=O)NC2CCCc3ccccc32)cc1 (stereo not shown) [Example 7, 4-amino-N-(1,2,3,4-tetrahydro-1-naphthalenyl)benzamide hydrochloride]
- ED50 [1]: 44.5 mg/kg

SMILES: Nc1ccc(C(=O)Nc2ccc3ccccc3c2)cc1 [Example 12, 4-Amino-N-2-naphthalenylbenzamide]
- ED50 [1]: > 200 mg/kg

SMILES: O=C1NC(=O)C(c2ccccc2)(c2ccccc2)N1 [phenytoin]
- plasma level at which ataxia is obvious (seizures; ataxia): 30000 ng/mL
- plasma level at which lethargy is apparent (seizures; lethargy): about 40 mcg/ml
- plasma level at which nystagmus is seen (seizures; nystagmus): around 20 mcg/ml
- plasma level at which seizures are controlled (seizures): ≥ 10 µg/mL
